Reference: publication PMC5647257 (Bioorganic & medicinal chemistry letters, 2017)

Target: HIV-1 protease (Human immunodeficiency virus type 1 group M subtype B, UniProt P04585)
Assay: HIV-1 protease inhibitory potency, assay protocol of Toth and Marshall
Type: biochemical
Conditions: compared with 13-membered inhibitors 5i and 5j

Row | SMILES | fold reduction of enzyme inhibitory activity over inhibitors 5i and 5j
1 | COc1ccc2c(c1)COC/C=C/CCCCCN(C[C@@H](O)[C@H](Cc1ccccc1)NC(=O)O[C@H]1CO[C@H]3OCC[C@H]31)S2(=O)=O [5l] | greater than 20 fold
2 | COc1ccc2c(c1)COC/C=C\CCCCCN(C[C@@H](O)[C@H](Cc1ccccc1)NC(=O)O[C@H]1CO[C@H]3OCC[C@H]31)S2(=O)=O [5k] | greater than 20 fold
